Results taken from patent publication US20070128217A1 (priority 2003, published 2007).

Assays:
[1] = tested on: antibodies in sera from SARS patients (sera 1a, 1b, 2, 6, 37, 62, London, SARS-yellow, SARS-green); format: binding, human; set-up: Binding of serum 6 to linear peptides of protein X1 of SARS-CoV Urbani / Binding of serum 37 to linear peptides of protein X1 of SARS-CoV Urbani / Binding of serum 6 to looped/cyclic peptide (PEPSCAN-ELISA) / Binding of serum 37 to looped/cyclic peptide (PEPSCAN-ELISA) / Binding of serum 37 to looped/cyclic peptides of protein X1 of SARS-CoV Urbani / Binding of serum 6 to linear peptides of protein X2 / Binding of serum 37 to linear peptides of protein X2 / Binding of serum 37 to looped/cyclic peptides of protein X2 of SARS-CoV Urbani / Binding of serum 6 to linear peptides of protein M of SARS-CoV Urbani / Binding of serum 37 to linear peptides of protein M of SARS-CoV Urbani / Binding of serum 6 to looped/cyclic peptides of protein M of SARS-CoV Urbani / Binding of serum 37 to looped/cyclic peptides of protein M of SARS-CoV Urbani / Binding of serum 6 to linear peptides of protein X3 of SARS-CoV Urbani / Binding of serum 37 to linear peptides of protein X3 of SARS-CoV Urbani / Binding of serum 37 to looped/cyclic peptides of protein X3 of SARS-CoV Urbani / Binding of serum 6 to linear peptides of protein X4 of SARS-CoV Urbani / Binding of serum 37 to linear peptides of protein X4 of SARS-CoV Urbani / Binding of serum 37 to looped/cyclic peptides of protein X4 of SARS-CoV Urbani / Binding of serum 6 to linear peptides of protein X5 of SARS-CoV Urbani / Binding of serum 37 to linear peptides of protein X5 of SARS-CoV Urbani / Binding of serum 37 to looped/cyclic peptides of protein X5 of SARS-CoV Urbani / Binding of serum 6 to linear peptides of protein N of SARS-CoV Urbani / Binding of serum 37 to linear peptides of protein N of SARS-CoV Urbani / Binding of serum 6 to linear peptide (PEPSCAN-ELISA) / Binding of serum 1a to looped/cyclic peptides of protein N of SARS-CoV Urbani / Binding of serum 1b to looped/cyclic peptides of protein N of SARS-CoV Urbani / Binding of serum 2 to looped/cyclic peptides of protein N of SARS-CoV Urbani / Binding of serum 6 to looped/cyclic peptides of protein N of SARS-CoV Urbani / Binding of serum 37 to looped/cyclic peptides of protein N of SARS-CoV Urbani / Binding of serum 62 to looped/cyclic peptides of protein N of SARS-CoV Urbani / Binding of serum London to looped/cyclic peptides of protein N of SARS-CoV Urbani / Binding of serum SARS-green to looped/cyclic peptides of protein N of SARS-CoV Urbani: unit not given here
[2] = tested on: control sera (pooled serum of ten healthy LUMC hospital workers; commercial negative donor pooled serum from the Dutch bloodbank); format: binding, human; set-up: Binding of Control serum LUMC to linear peptides / Binding of Control serum Blood-bank to linear peptides / Binding of Control serum LUMC to looped peptides / Binding of Control Serum Blood-Bank to Looped peptides / Binding of Control serum LUMC to linear peptides of the protein M of SARS-CoV Urbani / Binding of Control serum Blood-bank to linear peptides of the protein M of SARS-CoV Urbani / Binding of Control serum LUMC to looped peptides of the protein M of SARS-CoV Urbani / Binding of Control Serum Blood-Bank to Looped peptides of the protein M of SARS-CoV Urbani: unit not given here
[3] = tested on: rabbit serum obtained by immunizing a rabbit with the SARS-CoV strain Frankfurt 1; format: binding; set-up: Binding of a rabbit serum to linear peptides / Binding of a rabbit serum to looped peptides / Rabbit serum linear peptides / Rabbit serum looped peptides / Binding of a rabbit serum to linear peptides of protein N of SARS-CoV Urbani (Rabbit serum linear peptides) / Binding of a rabbit serum to looped/cyclic peptides of protein N of SARS-CoV Urbani (Rabbit serum looped peptides): unit not given here

AFACADGTRHTYQLR
Binding of serum 1a to linear peptides of protein X4 of SARS-CoV Urbani [1]: 0.6 | Binding of serum 1a to looped/cyclic peptides of protein X4 of SARS-CoV Urbani [1]: 0.6 | Binding of serum 1b to linear peptides of protein X4 of SARS-CoV Urbani [1]: 0.4 | Binding of serum 1b to looped/cyclic peptides of protein X4 of SARS-CoV Urbani [1]: 0.4 | Binding of serum 2 to linear peptides of protein X4 of SARS-CoV Urbani [1]: 0.4 | Binding of serum 2 to looped/cyclic peptides of protein X4 of SARS-CoV Urbani [1]: 0.8 | Binding of serum 6 to linear peptides of protein X4 of SARS-CoV Urbani [1]: 0.5 | Binding of serum 6 to looped/cyclic peptides of protein X4 of SARS-CoV Urbani [1]: 0.9 | Binding of serum 37 to linear peptides of protein X4 of SARS-CoV Urbani [1]: 0.6 | Binding of serum 37 to looped/cyclic peptides of protein X4 of SARS-CoV Urbani [1]: 0.6 | Binding of serum 62 to linear peptides of protein X4 of SARS-CoV Urbani [1]: 0.7 | Binding of serum 62 to looped/cyclic peptides of protein X4 of SARS-CoV Urbani [1]: 0.5 | Binding of serum London to linear peptides of protein X4 of SARS-CoV Urbani [1]: 0.6 | Binding of serum London to looped/cyclic peptides of protein X4 of SARS-CoV Urbani [1]: 0.4 | Binding of serum SARS-green to linear peptides of protein X4 of SARS-CoV Urbani [1]: 0.4 | Binding of serum SARS-green to looped/cyclic peptides of protein X4 of SARS-CoV Urbani [1]: 0.5 | Binding of serum SARS-yellow to linear peptides of protein X4 of SARS-CoV Urbani [1]: 0.2 | Binding of serum SARS-yellow to looped/cyclic peptides of protein X4 of SARS-CoV Urbani [1]: 0.4 | Binding of Control Serum Blood-Bank to Looped peptides [2]: 0.7 | Binding of Control serum Blood-bank to linear peptides [2]: 0.6 | Binding of Control serum LUMC to linear peptides [2]: 0.5 | Binding of Control serum LUMC to looped peptides [2]: 0.8 | Rabbit serum linear peptides [3]: 0.5 | Rabbit serum looped peptides [3]: 0.1

AGGALIARCWYLHEG
Binding of serum 1a to linear peptides of protein X5 of SARS-CoV Urbani [1]: 0.8 | Binding of serum 1a to looped/cyclic peptides of protein X5 of SARS-CoV Urbani [1]: 0.7 | Binding of serum 1b to linear peptides of protein X5 of SARS-CoV Urbani [1]: 0.7 | Binding of serum 1b to looped/cyclic peptides of protein X5 of SARS-CoV Urbani [1]: 0.4 | Binding of serum 2 to linear peptides of protein X5 of SARS-CoV Urbani [1]: 0.5 | Binding of serum 2 to looped/cyclic peptides of protein X5 of SARS-CoV Urbani [1]: 0.5 | Binding of serum 6 to linear peptides of protein X5 of SARS-CoV Urbani [1]: 0.7 | Binding of serum 6 to looped/cyclic peptides of protein X5 of SARS-CoV Urbani [1]: 0.5 | Binding of serum 37 to linear peptides of protein X5 of SARS-CoV Urbani [1]: 0.8 | Binding of serum 37 to looped/cyclic peptides of protein X5 of SARS-CoV Urbani [1]: 0.6 | Binding of serum 62 to linear peptides of protein X5 of SARS-CoV Urbani [1]: 0.9 | Binding of serum 62 to looped/cyclic peptides of protein X5 of SARS-CoV Urbani [1]: 0.5 | Binding of serum London to linear peptides of protein X5 of SARS-CoV Urbani [1]: 0.7 | Binding of serum London to looped/cyclic peptides of protein X5 of SARS-CoV Urbani [1]: 0.2 | Binding of serum SARS-green to linear peptides of protein X5 of SARS-CoV Urbani [1]: 0.7 | Binding of serum SARS-green to looped/cyclic peptides of protein X5 of SARS-CoV Urbani [1]: 0.4 | Binding of serum SARS-yellow to linear peptides of protein X5 of SARS-CoV Urbani [1]: 0.5 | Binding of serum SARS-yellow to looped/cyclic peptides of protein X5 of SARS-CoV Urbani [1]: 0.4 | Binding of Control Serum Blood-Bank to Looped peptides [2]: 0.7 | Binding of Control serum Blood-bank to linear peptides [2]: 0.6 | Binding of Control serum LUMC to linear peptides [2]: 0.5 | Binding of Control serum LUMC to looped peptides [2]: 0.4 | Rabbit serum linear peptides [3]: 0.5 | Rabbit serum looped peptides [3]: 0.4

AISPKFTTSLSLHKL
Binding of serum 1a to linear peptides of protein X2 [1]: 0.6 | Binding of serum 1a to looped/cyclic peptides of protein X2 of SARS-CoV Urbani [1]: 0.6 | Binding of serum 1b to linear peptides of protein X2 [1]: 0.5 | Binding of serum 1b to looped/cyclic peptides of protein X2 of SARS-CoV Urbani [1]: 0.6 | Binding of serum 2 to linear peptides of protein X2 [1]: 0.5 | Binding of serum 2 to looped/cyclic peptides of protein X2 of SARS-CoV Urbani [1]: 0.4 | Binding of serum 6 to linear peptides of protein X2 [1]: 0.6 | Binding of serum 6 to looped/cyclic peptides of protein X2 of SARS-CoV Urbani [1]: 0.8 | Binding of serum 37 to linear peptides of protein X2 [1]: 0.6 | Binding of serum 37 to looped/cyclic peptides of protein X2 of SARS-CoV Urbani [1]: 0.5 | Binding of serum 62 to linear peptides of protein X2 [1]: 0.6 | Binding of serum 62 to looped/cyclic peptides of protein X2 of SARS-CoV Urbani [1]: 0.7 | Binding of serum London to linear peptides of protein X2 [1]: 0.5 | Binding of serum London to looped/cyclic peptides of protein X2 of SARS-CoV Urbani [1]: 1.1 | Binding of serum SARS-green to linear peptides of protein X2 [1]: 0.4 | Binding of serum SARS-green to looped/cyclic peptides of protein X2 of SARS-CoV Urbani [1]: 0.3 | Binding of serum SARS-yellow to linear peptides of protein X2 [1]: 0.5 | Binding of serum SARS-yellow to looped/cyclic peptides of protein X2 of SARS-CoV Urbani [1]: 0.4 | Binding of Control Serum Blood-Bank to Looped peptides [2]: 0.8 | Binding of Control serum Blood-bank to linear peptides [2]: 0.8 | Binding of Control serum LUMC to linear peptides [2]: 0.6 | Binding of Control serum LUMC to looped peptides [2]: 0.6 | Binding of a rabbit serum to linear peptides [3]: 0.2 | Binding of a rabbit serum to looped peptides [3]: 0.4
